In US20220041578A1, “ISOINDOLINE COMPOUND, AND PREPARATION METHOD, PHARMACEUTICAL COMPOSITION, AND APPLICATION OF ISOINDOLINE COMPOUND” (Shanghai Institute of Meteria Medica, Chinese Academy of …, priority 2018, published 2022):

test system: MM.1S cells; test: Effect of the compound on the proliferation of MM.1S cells (MTS); format: cell-based; settings: Homo sapiens, MM1.S, 168 h, 7 days, read-out: Cell inhibitory activity (IC50)
Experimental: MM.1S cells were cultured with 1640 plus 10% fetal bovine serum and collected. The cell concentration was diluted according to the action time of 7 days, and 180 ul cell suspension was added to each well of the 96-well cell plate to make the cell count to be 20,000. 20 ul of DMSO with a final concentration of 0.2% was added to the control cell wells. The compound was diluted 5-fold with the 10 mM stock solution, and 20 ul was also added to the compound cell wells (the final concentration of DMSO is 0.2%). The cells were placed in a 37° C., 5% CO2 incubator and incubated for 7 days. After preparing the reaction solution according to the MTS kit (Promega, G5430), 20 μL was added to each well, incubated in a 37° C., 5% CO2 incubator for 3-4 h. Read the 490 nm absorbance value with a microtiter plate, and used the 690 nm absorbance value as the background value and OD490-OD690 as the final initial data. The formula for calculating the inhibition rate of the compound is: inhibition rate=(OD DMSO-ODcompound)/(ODDMSO-Oblank)×100%. The compound's proliferation inhibition IC50 was fitted by Graph Pad Prism 5.0. The experiment was repeated three times, and three parallel experiments were used to calculate the average and standard deviation each time.

`CN(C)CCn1ccc2cc(-n3cc(COc4cccc5c4CN(C4CCC(=O)NC4=O)C5=O)nn3)ccc21` (centres unmarked) [Compound 27, 3-(4-((1-(1-(2-(dimethylamino)ethyl)-1H-indol-5-)-1H-1,2,3-triazol-4-)methoxy)-1-oxoisoindolin-2-)piperidine-2,6-dione] and `O=C1CCC(N2Cc3c(OCc4cn(-c5ccc(O)cc5)nn4)cccc3C2=O)C(=O)N1` (centres unmarked) [Compound 21, 3-(4-((1-(4-hydroxyphenyl)-1H-1,2,3-triazol-4-)methoxy)-1-oxoisoindolin-2-) piperidine-2,6-dione] cannot be ordered by IC50: under 150 nM for the first, under 150 nM for the second.

`Cc1cc(COc2cccc3c2CN(C2CCC(=O)NC2=O)C3=O)nn1-c1c(Cl)cc(OC(F)(F)F)cc1Cl` (centres unmarked) [Compound 85, 3-(4-((1-(2,6-dichloro-4-(trifluoromethoxy)phenyl)-5-methyl-1H-pyrazol-3-yl)methoxy)-1-isoindolin-2-yl)piperidine-2,6-dione] and `Cc1c(COc2cccc3c2CN(C2CCC(=O)NC2=O)C3=O)cnn1-c1c(Cl)cc(OC(F)(F)F)cc1Cl` (centres unmarked) [Compound 84, 3-(4-((1-(2,6-dichloro-4-(trifluoromethoxy)phenyl)-5-methyl-1H-pyrazol-4-yl)methoxy)-1-isoindolin-2-1) piperidine-2,6-dione] cannot be ordered by IC50: under 150 nM for the first, under 150 nM for the second.

Compared with `O=C1CCC(N2Cc3c(OCC4CN(c5ccc(OC(F)(F)F)cc5)C4)cccc3C2=O)C(=O)N1` (centres unmarked) [Compound 64, 3-(1-oxo-4-((1-(4-trifluoromethoxyphenyl)azetidin-3-)methoxy)isoindolin-2-) piperidine-2,6-dione], `O=C1CCC(N2Cc3c(OCC4CCN(c5ccc(OC(F)(F)F)cc5)CC4)cccc3C2=O)C(=O)N1` (centres unmarked) [Compound 73, 3-(1-oxo-4-((1-(4-(trifluoromethoxy)phenyl)piperidin-4-)methoxy)isoindolin-2-) piperidin-2,6-dione] is lower in IC50: 150 to 20000 nM for the first, under 150 nM for the second. The second is the more potent here.

`O=C1CCC(N2Cc3c(OCc4cn(Cc5ccnc6ccccc56)nn4)cccc3C2=O)C(=O)N1` (centres unmarked) [Compound 4] and `O=C1CCC(N2Cc3c(OCc4cn(Cc5ccccc5)nn4)cccc3C2=O)C(=O)N1` (centres unmarked) [Compound 1] cannot be ordered by IC50: under 150 nM for the first, under 150 nM for the second.

`O=C1CCC(N2Cc3c(OCc4cn(Cc5cccc(N6CCOCC6)c5)nn4)cccc3C2=O)C(=O)N1` (centres unmarked) [Compound 7, 3-(4-((1-(3-morpholinbenzyl)-1H-1,2,3-triazol-4-)methoxy)-1-oxoisoindolin-2-) piperidine-2,6-dione] and `O=C1CCC(N2Cc3c(OCc4cn(-c5cccc(N6CCOCC6)c5)nn4)cccc3C2=O)C(=O)N1` (centres unmarked) [Compound 22, 3-(4-((1-(3-morpholinophenyl)-1H-1,2,3-triazol-4-)methoxy)-1-oxoisoindolin-2-) piperidine-2,6-dione] cannot be ordered by IC50: under 150 nM for the first, under 150 nM for the second.

`COc1cccc(Cn2cc(COc3cccc4c3CN(C3CCC(=O)NC3=O)C4=O)nn2)c1` (centres unmarked) [Compound 5] and `O=C1CCC(N2Cc3c(OCc4cn(Cc5cccc(OC(F)(F)F)c5)nn4)cccc3C2=O)C(=O)N1` (centres unmarked) [Compound 11] cannot be ordered by IC50: under 150 nM for the first, under 150 nM for the second.

Going from `O=C1CCC(N2Cc3c(OCc4cn(-c5ccccc5)nn4)cccc3C2=O)C(=O)N1` (centres unmarked) [Compound 15, 3-(1-oxo-4-((1-phenyl-1H-1,2,3-triazol-4-)methoxy)isoindolin-2-) piperidine-2,6-dione] to `O=C1CCC(N2Cc3c(OCCc4cn(-c5ccccc5)nn4)cccc3C2=O)C(=O)N1` (centres unmarked) [Compound 60, 3-(1-oxo-4-(2-(1-phenyl-1H-1,2,3-triazol-4-)ethoxy)isoindolin-2-) piperidine-2,6-dione], the IC50 rises from under 150 nM to over 20000 nM. The first is the more potent here.

`[2H]c1c([2H])c([2H])c(-n2cc(COc3cc(F)cc4c3CN(C3CCC(=O)NC3=O)C4=O)nn2)c([2H])c1[2H]` (centres unmarked) [Compound 79, 3-(6-fluoro-1-oxo-4-((1-(phenyl-D5)-1H-1,2,3-triazol-4-yl)methoxy)isoindolin-2-yl) piperidine-2,6-dione] and `O=C1CCC(N2Cc3c(OCc4cn(-c5cccc(O)c5)nn4)cccc3C2=O)C(=O)N1` (centres unmarked) [Compound 16, 3-(4-((1-(3-hydroxyphenyl)-1H-1,2,3-triazol-4-)methoxy)-1-oxoisoindolin-2-) piperidine-2,6-dione] cannot be ordered by IC50: under 150 nM for the first, under 150 nM for the second.

First: O=C1CCC(N2Cc3c(OCCC4CCN(c5ccnc6ccccc56)CC4)cccc3C2=O)C(=O)N1 (centres unmarked) [Compound 68, 3-(1-oxo-4-(2-(1-(quinolin-4-)piperidin-4-)ethoxy)isoindolin-2-) piperidin-2,6-dione]
Second: O=C1CCC(N2Cc3c(OC[C@H]4CCN(c5ccnc6ccccc56)C4)cccc3C2=O)C(=O)N1 (stereo partly drawn) [Compound 65, 3-(1-oxo-4-(((S)-1-(quinolin-4-)pyrrolin-3-)methoxy)isoindolin-2-) piperidine-2,6-dione]
The IC50 of the first is lower: under 150 nM for the first, 150 to 20000 nM for the second.

`O=C1CCC(N2Cc3c(OCc4cn(Cc5ccncc5)nn4)cccc3C2=O)C(=O)N1` (centres unmarked) [Compound 2] and `O=C1CCC(N2Cc3c(OCc4cn(Cc5cccnc5)nn4)cccc3C2=O)C(=O)N1` (centres unmarked) [Compound 3] fall in the same range of IC50: 150 to 20000 nM for the first, 150 to 20000 nM for the second.

First: O=C1CCC(N2Cc3c(OC[C@@H]4CCN(c5ccnc6ccccc56)C4)cccc3C2=O)C(=O)N1 (stereo partly drawn) [Compound 66, 3-(1-oxo-4-(((R)-1-(quinolin-4-)pyrrolin-3-)methoxy)isoindolin-2-) piperidine-2,6-dione]
Second: O=C1CCC(N2Cc3c(OCc4cnc(-c5nc6ccccc6s5)s4)cccc3C2=O)C(=O)N1 (centres unmarked) [Compound 46, 3-(4-(2-(benzo[d]thiazol-2-)thiazol-5-)methoxy)-1-oxoisoindolin-2-) piperidine-2,6-dione]
The IC50 of the first is higher: 150 to 20000 nM for the first, under 150 nM for the second.

`COCCn1ccc2cc(-n3cc(COc4cccc5c4CN([C@@]4(C)CCC(=O)NC4=O)C5=O)nn3)ccc21` [Compound 36, (S)-3-(4-((1-(1-(2-methoxyethyl)-1H-indol-5-)-1H-1,2,3-triazol-4-)methoxy)-1-oxoisoindolin-2-)-3-methylpiperidine-2,6-dione] and `C[C@]1(N2Cc3c(OCc4cn(-c5ccc(OC(F)(F)F)cc5)nn4)cccc3C2=O)CCC(=O)NC1=O` [Compound 34] fall in the same range of IC50: 150 to 20000 nM for the first, 150 to 20000 nM for the second.

Compared with `O=C1CCC(N2Cc3c(OCc4cn(-c5ccc(OC6CC6)cc5)nn4)cccc3C2=O)C(=O)N1` (centres unmarked) [Compound 32], `O=C1CCC(N2Cc3c(OCc4cn(-c5ccc(OC6CC6)cc5F)nn4)cccc3C2=O)C(=O)N1` (centres unmarked) [Compound 92, 3-(4-((1-(4-cyclopropoxy-2-fluorophenyl)-1H-1,2,3-triazol-4-yl)methoxy)-1-oxoisoindol-2-yl) piperidine-2,6-dione] is higher in IC50: under 150 nM for the first, 150 to 20000 nM for the second.

`O=C1CCC(N2Cc3c(OCc4cn(Cc5cccc(-n6ccnc6)c5)nn4)cccc3C2=O)C(=O)N1` (centres unmarked) [Compound 14, 3-(4-((1-(3-(1H-imidazol-1-)benzyl)-1H-1,2,3-triazol-4-)methoxy)-1-oxoisoindolin-2-) piperidine-2,6-dione] and `CN(C)c1cccc(Cn2cc(COc3cccc4c3CN(C3CCC(=O)NC3=O)C4=O)nn2)c1` (centres unmarked) [Compound 9] cannot be ordered by IC50: under 150 nM for the first, under 150 nM for the second.

`C[C@]1(N2C(=O)c3cccc(OCc4cn(-c5ccc(OC(F)(F)F)cc5)nn4)c3C2=O)CCC(=O)NC1=O` [Compound 35] and `O=C1CCC(N2C(=O)c3cccc(OCc4cn(-c5ccc(OC(F)(F)F)cc5)nn4)c3C2=O)C(=O)N1` (centres unmarked) [Compound 38, 2-(2,6-dioxopiperidine-3-)-4-((1-(4-trifluoromethoxyphenyl)-1H-1,2,3-triazol-4-)methoxy) isoindolin-1,3-dione] fall in the same range of IC50: 150 to 20000 nM for the first, 150 to 20000 nM for the second.

First: O=C1CCC(N2Cc3c(OCc4cnc(-c5ccc(OC(F)(F)F)cc5)o4)cc(F)cc3C2=O)C(=O)N1 (centres unmarked) [Compound 80, 3-(6-fluoro-1-oxo-4-((2-(4-(trifluoromethoxy)phenyl)oxazol-5-yl)methoxy)isoindolin-2-yl) piperidine-2,6-dione]
Second: O=C1CCC(N2Cc3c(NCc4cnc(-c5ccccc5OC(F)(F)F)o4)cccc3C2=O)C(=O)N1 (centres unmarked) [Compound 94]
The IC50 of the first is lower: under 150 nM for the first, 150 to 20000 nM for the second.

First: O=C1CCC(N2Cc3c(OCc4cn([C@H](CO)Cc5ccccc5)nn4)cccc3C2=O)C(=O)N1 (some centres unmarked) [Compound 54]
Second: COC[C@@H](Cc1ccccc1)n1cc(COc2cccc3c2CN(C2CCC(=O)NC2=O)C3=O)nn1 (some centres unmarked) [Compound 52]
The IC50 of the first is higher: 150 to 20000 nM for the first, under 150 nM for the second. The second is the more potent here.

`CN(C)C[C@H](Cc1ccccc1)n1cc(COc2cccc3c2CN(C2CCC(=O)NC2=O)C3=O)nn1` (some centres unmarked) [Compound 56] and `CN(C)C[C@@H](Cc1ccccc1)n1cc(COc2cccc3c2CN(C2CCC(=O)NC2=O)C3=O)nn1` (some centres unmarked) [Compound 57] cannot be ordered by IC50: under 150 nM for the first, under 150 nM for the second.

`O=C1CCC(N2Cc3c(OCCc4cn(-c5ccc(OC(F)(F)F)cc5)nn4)cccc3C2=O)C(=O)N1` (centres unmarked) [Compound 61, 3-(1-oxo-4-(2-(1-(4-(trifluoromethoxy)phenyl)-1H-1,2,3-triazol-4-)ethoxy)isoindoline-2-) piperidine-2,6-dione] and `O=C1CCC(N2Cc3c(OCc4cn(CCc5ccccc5)nn4)cccc3C2=O)C(=O)N1` (centres unmarked) [Compound 49] cannot be ordered by IC50: under 150 nM for the first, under 150 nM for the second.

`C[C@H](c1ccccc1)n1cc(COc2cccc3c2CN(C2CCC(=O)NC2=O)C3=O)nn1` (some centres unmarked) [Compound 50] and `CC(n1cc(COc2cccc3c2CN(C2CCC(=O)NC2=O)C3=O)nn1)C12CC3CC(CC(C3)C1)C2` [Compound 88, 3-(4-((1-(1-((1S, 3S)-adamantan-1-yl)ethyl)-1H-1,2,3-triazol-4-yl)methoxy)-1-isoindolin-2-yl) piperidin-2,-6-dione] cannot be ordered by IC50: under 150 nM for the first, under 150 nM for the second.

Compound `O=C1CCC(N2Cc3c(OCc4cnc(-c5ncc(C(F)(F)F)s5)s4)cccc3C2=O)C(=O)N1` (centres unmarked) [Compound 47] has an IC50 of under 150 nM.
